From US6479435B1, “Diaryl ethers and processes for their preparation and herbicidal and desiccant compositions containing them” (ISK Americas Incorporated, priority 1997, dated 2002)

Experiments:
Assay type in all cases: in vivo
[1] = tested on: soybean (Glycine max L., var. Pella 86, SOY); assay: Pre-emerge greenhouse test, crop damage rating; details: 14 days after application, rating scale 0-100
Outline: (§1)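 Visual 0–100 injury rating (100 = all plants dead) taken 14 days after treatment. Rates of 125–1000 g ai/ha in acetone, 187 l/ha, were sprayed onto soil one day post-sowing; pots were surface-watered to incorporate, then bottom-watered.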

[2] = tested on: upland rice (Oryza sp., var.Tebonnet, RICE); assay: Post-emerge greenhouse test, crop damage rating; details: 14 days after application
Outline: (§2)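 Scores use a 0 (no damage) to 100 (complete kill) scale, taken 14 days after a foliar spray. Acetone solutions with 0.25% v/v non-ionic surfactant were applied by track sprayer at 187 l/ha and 63-1000 g ai/ha to bottom-watered 2-3 leaf plants.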

[3] = tested on: field corn (Zea mays L., var. Dekalb 535, CORN); assay: Post-emerge greenhouse test, crop damage rating; details: 14 days after application
Outline: as §2

[4] = tested on: common ragweed (Ambrosia artemisiifolia L., AMBEL); assay: Post-emerge greenhouse herbicide test, phytotoxicity rating; details: 14 days after application
Outline: as §2

[5] = tested on: ivyleaf morningglory (Ipomoea hederacea, IPOHE); assay: Pre-emerge greenhouse herbicide test, phytotoxicity rating; details: 14 days after application, rating scale 0-100
Outline: as §1

[6] = tested on: sicklepod (Cassia obtusifolia, CASOB); assay: as above; details: 14 days after application, rating scale 0-100
Outline: as §1

[7] = tested on: redroot pigweed (Amaranthus retroflexus, AMARE); assay: as above; details: 14 days after application, rating scale 0-100
Outline: as §1

[8] = tested on: Johnsongrass (Sorghum halepense, SORHA); assay: as above; details: 14 days after application, rating scale 0-100
Outline: as §1

[9] = tested on: green foxtail (Setaria viridis, SETVI); assay: as above; details: 14 days after application, rating scale 0-100
Outline: as §1

[10] = tested on: lambsquarters (Chenopodium album, CHEAL); assay: as above; details: 14 days after application, rating scale 0-100
Outline: as §1

[11] = tested on: common ragweed (Ambrosia artemisiifolia L., AMBEL); assay: as above; details: 14 days after application, rating scale 0-100
Outline: as §1

[12] = tested on: large crabgrass (Digitaria sanguinalis, DIGSA); assay: as above; details: 14 days after application, rating scale 0-100
Outline: as §1

[13] = tested on: velvetleaf (Abutilon theophrasti, ABUTH); assay: as above; details: 14 days after application, rating scale 0-100
Outline: as §1

[14] = tested on: barnyardgrass (Echinochloa crusgalli, ECHCG); assay: as above; details: 14 days after application, rating scale 0-100
Outline: as §1

[15] = tested on: soybean (Glycine max L., var. Pella 86, SOY); assay: Post-emerge greenhouse test, crop damage rating; details: 14 days after application
Outline: as §2

[16] = tested on: ivyleaf morningglory (Ipomoea hederacea, IPOHE); assay: Post-emerge greenhouse herbicide test, phytotoxicity rating; details: 14 days after application
Outline: as §2

[17] = tested on: redroot pigweed (Amaranthus retroflexus, AMARE); assay: as above; details: 14 days after application
Outline: as §2

[18] = tested on: Johnsongrass (Sorghum halepense, SORHA); assay: as above; details: 14 days after application
Outline: as §2

[19] = tested on: green foxtail (Setaria viridis, SETVI); assay: as above; details: 14 days after application
Outline: as §2

[20] = tested on: lambsquarters (Chenopodium album, CHEAL); assay: as above; details: 14 days after application
Outline: as §2

[21] = tested on: large crabgrass (Digitaria sanguinalis, DIGSA); assay: as above; details: 14 days after application
Outline: as §2

[22] = tested on: velvetleaf (Abutilon theophrasti, ABUTH); assay: as above; details: 14 days after application
Outline: as §2

[23] = tested on: barnyardgrass (Echinochloa crusgalli, ECHCG); assay: as above; details: 14 days after application
Outline: as §2

[24] = tested on: upland rice (Oryza sp., var.Tebonnet, RICE); assay: Pre-emerge greenhouse test, crop damage rating; details: 14 days after application, rating scale 0-100
Outline: as §1

[25] = tested on: field corn (Zea mays L., var. Dekalb 535, CORN); assay: Pre-emerge greenhouse test, crop damage rating; details: 14 days after application, rating scale 0-100
Outline: as §1

O=c1n(CCCF)nnn1-c1cc(Oc2ncccn2)c(Cl)cc1Cl [Compound 6-14]
crop damage rating SOY ([1]; 125 g ai/ha): 10 | crop damage rating SOY ([1]; 500 g ai/ha): 80 | RICE crop damage rating (0-100) ([2]; 63 g al/ha): 20 | RICE crop damage rating (0-100) ([2]; 500 g al/ha): 50 | CORN crop damage rating (0-100) ([3]; 63 g al/ha): 0 | CORN crop damage rating (0-100) ([3]; 500 g al/ha): 20 | AMBEL phytotoxicity rating (0-100) ([4]; 63 g al/ha): 0 | AMBEL phytotoxicity rating (0-100) ([4]; 500 g al/ha): 50 | phytotoxicity rating IPOHE ([5]; 125 g ai/ha): 60 | phytotoxicity rating IPOHE ([5]; 500 g ai/ha): 95 | phytotoxicity rating CASOB ([6]; 125 g ai/ha): 60 | phytotoxicity rating CASOB ([6]; 500 g ai/ha): 90 | phytotoxicity rating AMARE ([7]; 125 g ai/ha): 100 | phytotoxicity rating AMARE ([7]; 500 g ai/ha): 100 | phytotoxicity rating SORHA ([8]; 125 g ai/ha): 80 | phytotoxicity rating SORHA ([8]; 500 g ai/ha): 100 | phytotoxicity rating SETVI ([9]; 125 g ai/ha): 100 | phytotoxicity rating SETVI ([9]; 500 g ai/ha): 100 | phytotoxicity rating CHEAL ([10]; 125 g ai/ha): 100 | phytotoxicity rating CHEAL ([10]; 500 g ai/ha): 100 | phytotoxicity rating AMBEL ([11]; 125 g ai/ha): 20 | phytotoxicity rating AMBEL ([11]; 500 g ai/ha): 95 | phytotoxicity rating DIGSA ([12]; 125 g ai/ha): 90 | phytotoxicity rating DIGSA ([12]; 500 g ai/ha): 100 | phytotoxicity rating ABUTH ([13]; 125 g ai/ha): 100 | phytotoxicity rating ABUTH ([13]; 500 g ai/ha): 100 | phytotoxicity rating ECHCG ([14]; 125 g ai/ha): 60 | phytotoxicity rating ECHCG ([14]; 500 g ai/ha): 99 | SOY crop damage rating (0-100) ([15]; 63 g al/ha): 50 | SOY crop damage rating (0-100) ([15]; 500 g al/ha): 90 | IPOHE phytotoxicity rating (0-100) ([16]; 63 g al/ha): 50 | IPOHE phytotoxicity rating (0-100) ([16]; 500 g al/ha): 100 | AMARE phytotoxicity rating (0-100) ([17]; 63 g al/ha): 20 | AMARE phytotoxicity rating (0-100) ([17]; 500 g al/ha): 100 | SORHA phytotoxicity rating (0-100) ([18]; 63 g al/ha): 30 | SORHA phytotoxicity rating (0-100) ([18]; 500 g al/ha): 90 | SETVI phytotoxicity rating (0-100) ([19]; 63 g al/ha): 0 | SETVI phytotoxicity rating (0-100) ([19]; 500 g al/ha): 70 | CHEAL phytotoxicity rating (0-100) ([20]; 63 g al/ha): 70 | CHEAL phytotoxicity rating (0-100) ([20]; 500 g al/ha): 95 | DIGSA phytotoxicity rating (0-100) ([21]; 63 g al/ha): 0 | DIGSA phytotoxicity rating (0-100) ([21]; 500 g al/ha): 30 | ABUTH phytotoxicity rating (0-100) ([22]; 63 g al/ha): 70 | ABUTH phytotoxicity rating (0-100) ([22]; 500 g al/ha): 100 | ECHCG phytotoxicity rating (0-100) ([23]; 63 g al/ha): 0 | ECHCG phytotoxicity rating (0-100) ([23]; 500 g al/ha): 60 | crop damage rating RICE ([24]; 125 g ai/ha): 30 | crop damage rating RICE ([24]; 500 g ai/ha): 80 | crop damage rating CORN ([25]; 125 g ai/ha): 20 | crop damage rating CORN ([25]; 500 g ai/ha): 40

N#Cc1cccnc1Oc1cc(-n2nnn(CCCF)c2=O)c(Cl)cc1Cl [Compound 6-5]
crop damage rating SOY ([1]; 125 g ai/ha): 10 | crop damage rating SOY ([1]; 500 g ai/ha): 0 | RICE crop damage rating (0-100) ([2]; 63 g al/ha): 20 | RICE crop damage rating (0-100) ([2]; 500 g al/ha): 30 | CORN crop damage rating (0-100) ([3]; 63 g al/ha): 0 | CORN crop damage rating (0-100) ([3]; 500 g al/ha): 0 | AMBEL phytotoxicity rating (0-100) ([4]; 63 g al/ha): 0 | AMBEL phytotoxicity rating (0-100) ([4]; 500 g al/ha): 0 | phytotoxicity rating IPOHE ([5]; 125 g ai/ha): 40 | phytotoxicity rating IPOHE ([5]; 500 g ai/ha): 40 | phytotoxicity rating CASOB ([6]; 125 g ai/ha): 70 | phytotoxicity rating CASOB ([6]; 500 g ai/ha): 50 | phytotoxicity rating AMARE ([7]; 125 g ai/ha): 90 | phytotoxicity rating AMARE ([7]; 500 g ai/ha): 100 | phytotoxicity rating SORHA ([8]; 125 g ai/ha): 30 | phytotoxicity rating SORHA ([8]; 500 g ai/ha): 70 | phytotoxicity rating SETVI ([9]; 125 g ai/ha): 0 | phytotoxicity rating SETVI ([9]; 500 g ai/ha): 100 | phytotoxicity rating CHEAL ([10]; 125 g ai/ha): 90 | phytotoxicity rating CHEAL ([10]; 500 g ai/ha): 100 | phytotoxicity rating AMBEL ([11]; 125 g ai/ha): 0 | phytotoxicity rating AMBEL ([11]; 500 g ai/ha): 50 | phytotoxicity rating DIGSA ([12]; 125 g ai/ha): 30 | phytotoxicity rating DIGSA ([12]; 500 g ai/ha): 70 | phytotoxicity rating ABUTH ([13]; 125 g ai/ha): 0 | phytotoxicity rating ABUTH ([13]; 500 g ai/ha): 90 | phytotoxicity rating ECHCG ([14]; 125 g ai/ha): 0 | phytotoxicity rating ECHCG ([14]; 500 g ai/ha): 0 | SOY crop damage rating (0-100) ([15]; 63 g al/ha): 20 | SOY crop damage rating (0-100) ([15]; 500 g al/ha): 30 | IPOHE phytotoxicity rating (0-100) ([16]; 63 g al/ha): 0 | IPOHE phytotoxicity rating (0-100) ([16]; 500 g al/ha): 0 | AMARE phytotoxicity rating (0-100) ([17]; 63 g al/ha): 40 | AMARE phytotoxicity rating (0-100) ([17]; 500 g al/ha): 80 | SORHA phytotoxicity rating (0-100) ([18]; 63 g al/ha): 0 | SORHA phytotoxicity rating (0-100) ([18]; 500 g al/ha): 20 | SETVI phytotoxicity rating (0-100) ([19]; 63 g al/ha): 0 | SETVI phytotoxicity rating (0-100) ([19]; 500 g al/ha): 30 | CHEAL phytotoxicity rating (0-100) ([20]; 63 g al/ha): 20 | CHEAL phytotoxicity rating (0-100) ([20]; 500 g al/ha): 80 | DIGSA phytotoxicity rating (0-100) ([21]; 63 g al/ha): 0 | DIGSA phytotoxicity rating (0-100) ([21]; 500 g al/ha): 10 | ABUTH phytotoxicity rating (0-100) ([22]; 63 g al/ha): 0 | ABUTH phytotoxicity rating (0-100) ([22]; 500 g al/ha): 20 | ECHCG phytotoxicity rating (0-100) ([23]; 63 g al/ha): 0 | ECHCG phytotoxicity rating (0-100) ([23]; 500 g al/ha): 0 | crop damage rating RICE ([24]; 125 g ai/ha): 20 | crop damage rating RICE ([24]; 500 g ai/ha): 10 | crop damage rating CORN ([25]; 125 g ai/ha): 20 | crop damage rating CORN ([25]; 500 g ai/ha): 20
